Laboratory results as given in PubChem BioAssay (NCI).
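Dose response: 5 concentrations. Exposure: 48 h. Format: 96-well plates. Endpoint: linear interpolation; highest concentration if not reached. GI50 is the concentration that inhibits growth by half. TGI marks complete inhibition of growth.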

What was measured:
Experiment in all cases: DTP human tumour cell line panel, 48 h
786-0 renal = system: 786-0 renal
A498 renal = system: A498 renal
A549 NSCLC = system: A549 NSCLC
BT-549 breast = system: BT-549 breast
CAKI-1 renal = system: CAKI-1 renal
CCRF-CEM leukemia = system: CCRF-CEM leukemia
COLO 205 colon = system: COLO 205 colon
DU-145 prostate = system: DU-145 prostate
EKVX NSCLC = system: EKVX NSCLC
HCT-116 colon = system: HCT-116 colon
HCT-15 colon = system: HCT-15 colon
HL-60(TB) leukemia = system: HL-60(TB) leukemia
HOP-62 NSCLC = system: HOP-62 NSCLC
HOP-92 NSCLC = system: HOP-92 NSCLC
HT29 colon = system: HT29 colon
IGROV1 ovarian = system: IGROV1 ovarian
K-562 leukemia = system: K-562 leukemia
LOX IMVI melanoma = system: LOX IMVI melanoma
M14 melanoma = system: M14 melanoma
MALME-3M melanoma = system: MALME-3M melanoma
MCF7 breast = system: MCF7 breast
MDA-MB-231 breast = system: MDA-MB-231 breast
MDA-MB-435 = system: MDA-MB-435
MOLT-4 leukemia = system: MOLT-4 leukemia
NCI-H226 lung = system: NCI-H226 lung
NCI-H23 lung = system: NCI-H23 lung
NCI-H460 lung = system: NCI-H460 lung
NCI-H522 lung = system: NCI-H522 lung
NCI/ADR-RES ovarian = system: NCI/ADR-RES ovarian
OVCAR-3 ovarian = system: OVCAR-3 ovarian
OVCAR-4 ovarian = system: OVCAR-4 ovarian
OVCAR-5 ovarian = system: OVCAR-5 ovarian
OVCAR-8 ovarian = system: OVCAR-8 ovarian
PC-3 prostate = system: PC-3 prostate
RPMI-8226 leukemia = system: RPMI-8226 leukemia
SF-295 CNS = system: SF-295 CNS
SF-539 CNS = system: SF-539 CNS
SK-MEL-2 melanoma = system: SK-MEL-2 melanoma
SK-MEL-5 melanoma = system: SK-MEL-5 melanoma
SK-OV-3 ovarian = system: SK-OV-3 ovarian
SN12C renal = system: SN12C renal
SNB-19 CNS = system: SNB-19 CNS
SNB-75 CNS = system: SNB-75 CNS
SR leukemia = system: SR leukemia
SW-620 colon = system: SW-620 colon
T-47D breast = system: T-47D breast
TK-10 renal = system: TK-10 renal
U251 CNS = system: U251 CNS
UACC-257 melanoma = system: UACC-257 melanoma
UACC-62 melanoma = system: UACC-62 melanoma
UO-31 renal = system: UO-31 renal

`O=C1Nc2ccccc2/C1=C/C(=O)c1ccc(N2CCCC2)cc1` showed a GI50 (786-0 renal) of 2840 nM, a TGI (786-0 renal) greater than 100 µM and a GI50 (A498 renal) of 3.45 µM. The TGI (A498 renal) was greater than 100 µM, the GI50 (A549 NSCLC) was 3.34 µM and the TGI (A549 NSCLC) was greater than 100 µM. It also gave a GI50 (BT-549 breast) of 3.27 µM, a TGI (BT-549 breast) greater than 100 µM and a GI50 (CAKI-1 renal) of 1200 nM. It also gave a TGI (CAKI-1 renal) greater than 100 µM, a GI50 (CCRF-CEM leukemia) of 2000 nM and a TGI (CCRF-CEM leukemia) greater than 100 µM. For the same compound, the GI50 (COLO 205 colon) was 1670 nM, the TGI (COLO 205 colon) was 4.96 µM and the GI50 (DU-145 prostate) was 3.2 µM. It also gave a TGI (DU-145 prostate) greater than 100 µM, a GI50 (EKVX NSCLC) of 6.09 µM and a TGI (EKVX NSCLC) greater than 100 µM. It also gave a GI50 (HCT-116 colon) of 1560 nM, a TGI (HCT-116 colon) of 4.24 µM and a GI50 (HCT-15 colon) of 686 nM. For the same compound, the TGI (HCT-15 colon) was 9.7 µM, the GI50 (HL-60(TB) leukemia) was 1240 nM and the TGI (HL-60(TB) leukemia) was 4.56 µM. The GI50 (HOP-62 NSCLC) was 2470 nM, the TGI (HOP-62 NSCLC) was greater than 100 µM and the GI50 (HOP-92 NSCLC) was 1750 nM. For the same compound, the TGI (HOP-92 NSCLC) was 7.11 µM, the GI50 (HT29 colon) was 1200 nM and the GI50 (IGROV1 ovarian) was 1710 nM. The TGI (IGROV1 ovarian) was 9.07 µM, the GI50 (K-562 leukemia) was 833 nM and the TGI (K-562 leukemia) was greater than 100 µM. The GI50 (LOX IMVI melanoma) was 1730 nM, the TGI (LOX IMVI melanoma) was 3.56 µM and the GI50 (M14 melanoma) was 2280 nM. The TGI (M14 melanoma) was 22.3 µM, the GI50 (MALME-3M melanoma) was 2840 nM and the TGI (MALME-3M melanoma) was greater than 100 µM. It also gave a GI50 (MCF7 breast) of 2050 nM, a TGI (MCF7 breast) greater than 100 µM and a GI50 (MDA-MB-231 breast) of 3.73 µM. It also gave a TGI (MDA-MB-231 breast) greater than 100 µM, a GI50 (MDA-MB-435) of 1250 nM and a TGI (MDA-MB-435) greater than 100 µM. For the same compound, the GI50 (MOLT-4 leukemia) was 2020 nM, the GI50 (NCI-H226 lung) was 4.35 µM and the TGI (NCI-H226 lung) was greater than 100 µM. The GI50 (NCI-H23 lung) was 5.2 µM, the TGI (NCI-H23 lung) was greater than 100 µM and the GI50 (NCI-H460 lung) was 2860 nM. The TGI (NCI-H460 lung) was 8.17 µM, the GI50 (NCI-H522 lung) was 2280 nM and the TGI (NCI-H522 lung) was greater than 100 µM. The GI50 (NCI/ADR-RES ovarian) was 2150 nM, the TGI (NCI/ADR-RES ovarian) was 6.5 µM and the GI50 (OVCAR-3 ovarian) was 1790 nM. The TGI (OVCAR-3 ovarian) was 4.83 µM, the GI50 (OVCAR-4 ovarian) was 3.1 µM and the TGI (OVCAR-4 ovarian) was greater than 100 µM. The GI50 (OVCAR-5 ovarian) was 4.54 µM, the TGI (OVCAR-5 ovarian) was greater than 100 µM and the GI50 (OVCAR-8 ovarian) was 1620 nM. It also gave a TGI (OVCAR-8 ovarian) of 4.5 µM, a GI50 (PC-3 prostate) of 1770 nM and a TGI (PC-3 prostate) of 8.04 µM. It also gave a GI50 (RPMI-8226 leukemia) of 1980 nM, a TGI (RPMI-8226 leukemia) of 5.31 µM and a GI50 (SF-295 CNS) of 3.96 µM. It also gave a TGI (SF-295 CNS) greater than 100 µM, a GI50 (SF-539 CNS) of 2110 nM and a TGI (SF-539 CNS) of 4.75 µM. The GI50 (SK-MEL-2 melanoma) was 3.87 µM, the TGI (SK-MEL-2 melanoma) was greater than 100 µM and the GI50 (SK-MEL-5 melanoma) was 2960 nM. For the same compound, the TGI (SK-MEL-5 melanoma) was greater than 100 µM, the GI50 (SK-OV-3 ovarian) was 3.4 µM and the TGI (SK-OV-3 ovarian) was greater than 100 µM. For the same compound, the GI50 (SN12C renal) was 3.26 µM, the TGI (SN12C renal) was greater than 100 µM and the GI50 (SNB-19 CNS) was 3.8 µM. The TGI (SNB-19 CNS) was greater than 100 µM, the GI50 (SNB-75 CNS) was 2050 nM and the TGI (SNB-75 CNS) was 6.91 µM. It also gave a GI50 (SR leukemia) of 327 nM, a TGI (SR leukemia) of 4.42 µM and a GI50 (SW-620 colon) of 339 nM. It also gave a TGI (SW-620 colon) of 3.01 µM, a GI50 (T-47D breast) of 2120 nM and a TGI (T-47D breast) of 6.38 µM. For the same compound, the GI50 (TK-10 renal) was 3.24 µM, the TGI (TK-10 renal) was greater than 100 µM and the GI50 (U251 CNS) was 2890 nM. It also gave a TGI (U251 CNS) greater than 100 µM, a GI50 (UACC-257 melanoma) of 4.3 µM and a TGI (UACC-257 melanoma) greater than 100 µM. The GI50 (UACC-62 melanoma) was 2780 nM, the TGI (UACC-62 melanoma) was 9.81 µM and the GI50 (UO-31 renal) was 2140 nM. It also gave a TGI (UO-31 renal) greater than 100 µM.
